Assay results as given in patent publication US20160311812A1, “ADENOSINE A1 AGONISTS AS MEDICAMENTS FOR KIDNEY DISORDERS” (BAYER PHARMA AKTIENGESELLSCHAFT, priority 2013, published 2016).

Legend:
[1] = test system: 5/6 nephrectomy rat model; assay: Functional and structural renal dysfunction in 5/6 nephrectomized rats; type: in vivo; settings: Group 3: SNX + 10 mg/kg body weight/day in drinking water, 4 weeks
Description: (§1) B-3. Effects of Partial A1 Agonists on Renal and Cardiac Function in 5/6 Nephrectomized Rats (Example 1 for Chronic Kidney Disorder)
(§2) 5/6 nephrectomy in the rat, in which one kidney and the renal cortex of the second kidney are surgically removed (=5/6 of functional kidney tissue) is an established animal model for interstitial renal fibrosis and chronic renal insufficiency [C. Fleck et al., “Suitability of 5/6 nephrectomy (5/6NX) for the induction of interstitial renal fibrosis in rats Influence of sex, strain, and surgical procedure”, Exp. Tox. Pathology 2006, 57, 195-205]. The model is characterized by progressive proteinuria, disturbed tubular electrolyte transport, a reduced glomerular filtration rate, an increase in urinary output, interstitial fibrosis with reactively occurring lymphocyte infiltrates, glomerulosclerosis and tubular atrophy. The level of proteinuria is a specific index of the renal function prognosis: the higher the proteinuria, the greater is the functional and structural kidney injury and therefore progression of chronic to terminal renal insufficiency (uraemia). During monitoring of therapy, e.g. with the ACE inhibitor enalapril, the course of proteinuria provides information on the functional and structural response to the therapy and thus on the renal function prognosis. As a result of the renal insufficiency and accumulation of umemic toxins, in the animals there is secondary development of a umemic cardiomyopathy, depending on the severity associated with hypertension, increased heart rate, reduced parasympathetic tone, myocardial, left-ventricular hypertrophy and fibrosis, diastolic dysfunction and an increased prevalence of arrhythmias [Svilerova et al. 2010 Physiol Res 59: S81-S88).
(§3) Procedure: male Wistar:WU rats (210-250 g) from Charles River had the left kidney and the renal cortex of the right kidney removed (=SNX) in one session; sham-operated rats served as control group (=SOP). The following groups, each with 12 rats per group, were investigated:
(§4) Group 2 SNX+placebo (60 g glycerol+100 g water+969 g PEG-400)
(§5) Group 3 SNX+10 mg/kg body weight/day enalapril (reference therapy, in the drinking water)
(§6) Group 4 SNX+0.1 mg/kg body weight/day partial A1 agonist EXAMPLE 1, p.o. in placebo
(§7) Group 5 SNX+1.0 mg/kg body weight/day partial A1 agonist EXAMPLE 1, p.o. in placebo
(§8) Group 6 SNX+0.3 mg/kg body weight/day partial A1 agonist EXAMPLE 4, p.o. in placebo
(§9) Group 7 SNX+3.0 mg/kg body weight/day partial A1 agonist EXAMPLE 4, p.o. in placebo
(§10) Three weeks after 5/6 nephrectomy, the rats developed manifest proteinuria, from this time point the rats were treated for a further four weeks corresponding to the groups stated above. At the end of the protocol, the following samples were obtained/measurements were carried out: eight-hour urine collection with determination of the concentration of hFABP in the urine by ELISA (Rat/Mouse h-FABP ELISA, Hycultbiotech), as marker for end organ damage, invasive measurement of the isoprenaline-induced increase (cumulatively 12.5 ng-250 ng/kg isoprenaline, i.v.) in systolic and diastolic left ventricular function, and TaqMan analyses of renal injury markers in the renal cortex.

[2] = test system: 5/6 nephrectomy rat model; assay: Left-ventricular diastolic dysfunction under isoprenaline infusion in 5/6 nephrectomized rats; type: in vivo; settings: Group 3: SNX + 10 mg/kg body weight/day in drinking water, 4 weeks
Description: as §1, §2, §3, §4, §5, §6, §7, §8, §9, §10

[3] = test system: unilaterally nephrectomized SHR; assay: Functional and structural renal dysfunction in unilaterally nephrectomized spontaneously hypertensive rats; type: in vivo, rat; settings: Group 3: UNX + 10 mg/kg body weight/day in drinking water, 4 weeks
Description: (§11) B-4. Effects of Partial A1 Agonists on Renal and Cardiac Function in Unilaterally Nephrectomized and Spontaneously Hypertensive Rats (Example 2 for Chronic Kidney Disorders)
(§12) Unilaterally nephrectomized, spontaneously hypertensive rats (SHR) are an established animal model for investigating the development and progression of hypertensive damage of the glomeruli in the remaining kidney [H. Kinuno et al., “Effects of uninephrectomy on renal structural properties in spontaneously hypertensive rats”, Clin and Exp Pharmacol and Physiol 2005, 32, 173-178]. […] Furthermore, renal excretion of substances usually eliminated in the urine, such as creatinine and urea, is reduced and the electrolyte metabolism is disturbed, the latter being associated with volume retention.
(§13) Procedure: male SHR rats (180-220 g) from Taconic had the left kidney removed in one session (=UNX). Normotensive Wistar Kyoto rats (WKY) from Taconic served as control. The following groups, each with 12 rats per group, were investigated:
(§14) Group 2 UNX+placebo (60 g glycerol+100 g water+969 g PEG-400)
(§15) Group 3 UNX+10 mg/kg body weight/day enalapril (reference therapy, in the drinking water)
(§16) Group 4 SNX+1.0 mg/kg body weight/day partial A1 EXAMPLE 1, p.o. in placebo
(§17) Group 5 SNX+3.0 mg/kg body weight/day partial A1 EXAMPLE 4, p.o. in placebo
(§18) Three weeks after unilateral nephrectomy, the SHRs developed manifest hypertensive damage of the glomeruli in the remaining kidney, from this time point on the rats were treated for a further four weeks corresponding to the groups given above. At the end of the protocol, the following samples were obtained/measurements were carried out: eight-hour urine collection, invasive measurement of systolic and diastolic left ventricular function, and TaqMan analyses of renal injury markers in the renal cortex.

[4] = test system: unilaterally nephrectomized SHR; assay: Functional and structural myocardial dysfunction in unilaterally nephrectomized spontaneously hypertensive rats; type: in vivo, rat; settings: Group 3: UNX + 10 mg/kg body weight/day in drinking water, 4 weeks
Description: as §11, §12, §13, §14, §15, §16, §17, §18

SMILES: CCOC(=O)[C@H](CCc1ccccc1)N[C@@H](C)C(=O)N1CCC[C@H]1C(=O)O [enalapril, reference compound]
- P-urea [1]: 15 ± 1 mmol/L
- U-creatinine [1]: 1.6 ± 0.2 μmol/ml urine/kg BW/h
- U-protein [1]: 0.25 ± 0.04 μmol/ml urine/kg BW/h
- U-sodium [1]: 18 ± 3 μmol/ml urine/kg BW/h
- U-urea [1]: 198 ± 22 μmol/ml urine/kg BW/h
- Urine volume [1]: 2.8 ± 0.2 ml/kg BW/h
- End organ injury marker concentration in the urine: hFABP ([1]; ELISA): 377 ± 151 pg hFABP/ml urine/h
- End organ injury marker concentration in the urine: hFABP per creatinine ([1]; ELISA): 83 ± 33 pg hFABP/μmol creatinine
- Kidney injury marker-1 [gene expression] ([1]; renal cortex): 27 ± 17 rel. expression
- Lipocalin-2 [gene expression] ([1]; renal cortex): 400 ± 236 rel. expression
- Osteopontin [gene expression] ([1]; renal cortex): 6226 ± 4107 rel. expression
- left-ventricular pressure decrease as a function of time ([2]; isoprenaline 0 ng/kg body weight): 6613 ± 226 mmHg/s
- left-ventricular pressure decrease as a function of time ([2]; isoprenaline 12.5 ng/kg body weight): 7972 ± 280 mmHg/s
- left-ventricular pressure decrease as a function of time ([2]; isoprenaline 25 ng/kg body weight): 8297 ± 285 mmHg/s
- left-ventricular pressure decrease as a function of time ([2]; isoprenaline 50 ng/kg body weight): 8705 ± 227 mmHg/s
- left-ventricular pressure decrease as a function of time ([2]; isoprenaline 100 ng/kg body weight): 9267 ± 177 mmHg/s
- left-ventricular pressure decrease as a function of time ([2]; isoprenaline 250 ng/kg body weight): 9359 ± 202 mmHg/s
- P-creatinine [3]: 62 ± 1.6 mmol/L
- P-urea [3]: 9.3 ± 0.4 mmol/L
- U-creatinine [3]: 1.5 ± 0.3 μmol/ml urine/kg BW/h
- U-protein [3]: 0.43 ± 0.07 μmol/ml urine/kg BW/h
- U-sodium [3]: 30 ± 5 μmol/ml urine/kg BW/h
- U-urea [3]: 153 ± 27 μmol/ml urine/kg BW/h
- Urine volume [3]: 2.4 ± 0.2 ml/kg BW/h
- CYR61 [gene expression] ([3]; renal cortex): 460 ± 55 rel. expression
- Lipocalin-2 [gene expression] ([3]; renal cortex): 140 ± 23 rel. expression
- Diastolic blood pressure [4]: 91 ± 5 mmHg
- Heart rate [4]: 353 ± 7 beats/min
- Left ventricular hypertrophy (LVS/RV ratio, mg/mg) [4]: 3.7 ± 0.2 mg/mg
- Left-ventricular end-diastolic pressure [4]: 5.4 ± 0.6 mmHg
- Left-ventricular pressure [4]: 130 ± 5 mmHg
- Pressure decrease over time [4]: −10130 ± 239 mmHg/s
- Pressure increase over time [4]: 8114 ± 304 mmHg/s
- Systolic blood pressure [4]: 132 ± 4 mmHg
